Reference: PubChem BioAssay AID266 (DTP/NCI, 2004)
Results filed as inconclusive are left out.

Test system: Nude mice, LX-1 lung xenograft intrarenal, tumor weight T/C
Test: NCI In Vivo Anticancer Drug Screen. Data for tumor model Human Lung LX-1 Xenograft (intrarenal inoculation) in NU/NU BALB/C (nude) mice
Conditions: endpoint: mean tumor weight change, higher = larger tumour
Experimental: The antitumor activity of compounds was measured in mice bearing transplantable tumors. Survival or tumor size were measured and the results are expressed as the measurement made in the treated group (T) divided by the measurement made in the vehicle treated control group (C). The tumor model used in this assay is Human Lung LX-1 Xenograft (intrarenal inoculation) in NU/NU BALB/C (nude) mice

In the case of `NC1=NCN(C2OC(CO)C(O)C2O)C(=O)N1` (stereo not given), the T/C (dose: 25.0 mg/kg/injection, schedule: Q01DX010 (sc), vehicle: saline) is reported as 86 % of control, the T/C (dose: 50.0 mg/kg/injection, schedule: Q01DX010 (sc), vehicle: saline) is reported as 180 % of control and the T/C (dose: 100.0 mg/kg/injection, schedule: Q01DX010 (sc), vehicle: saline) is reported as 112 % of control. For the same molecule, the T/C (dose: 166.66 mg/kg/injection, schedule: Q04DX003 (sc), vehicle: saline) was 158 % of control, the T/C (dose: 200.0 mg/kg/injection, schedule: Q01DX010 (sc), vehicle: saline) was 84 % of control and the T/C (dose: 333.32 mg/kg/injection, schedule: Q04DX003 (sc), vehicle: saline) was 55 % of control. The T/C (dose: 666.65 mg/kg/injection, schedule: Q04DX003 (sc), vehicle: saline) was 88 % of control.
In the case of `C1CN1c1nc(N2CC2)nc(N2CC2)n1`, the T/C (dose: 0.25 mg/kg/injection, schedule: Q01DX010 (sc), vehicle: saline) is reported as 34 % of control and the T/C (dose: 0.5 mg/kg/injection, schedule: Q01DX010 (sc), vehicle: saline) is reported as 45 % of control.
`CC1(C)CC2(C)OC2C2(C1)N=NC(=Nc1ccccc1)O2` (stereo not given) was tested, and the T/C (dose: 300.0 mg/kg/injection, schedule: Q04DX003 (sc), vehicle: saline with Tween-80) was 104 % of control, the T/C (dose: 600.0 mg/kg/injection, schedule: Q04DX003 (sc), vehicle: saline with Tween-80) was 61 % of control and the T/C (dose: 1200.0 mg/kg/injection, schedule: Q04DX003 (sc), vehicle: saline with Tween-80) was 91 % of control.
In the case of `Nc1ncnc2c(C3OC(CO)C(O)C3O)[nH]nc12` (stereo not given), the T/C (dose: 75.0 mg/kg/injection, schedule: Q04DX003 (sc), vehicle: suspension in saline) is reported as 83 % of control and the T/C (dose: 150.0 mg/kg/injection, schedule: Q04DX003 (sc), vehicle: suspension in saline) is reported as 37 % of control.
In the case of `COc1cccc2c1C(=O)c1c(O)c3c(c(O)c1C2=O)CC(O)(/C(C)=N/NC(=O)CCC(=O)N/N=C(\C)C1(O)Cc2c(O)c4c(c(O)c2C(OC2CC(N)C(O)C(C)O2)C1)C(=O)c1c(OC)cccc1C4=O)CC3OC1CC(N)C(O)C(C)O1` (stereo not given), the T/C (dose: 6.25 mg/kg/injection, schedule: Q01DX010 (sc), vehicle: water) is reported as 65 % of control and the T/C (dose: 12.5 mg/kg/injection, schedule: Q01DX010 (sc), vehicle: water) is reported as 23 % of control.
`CC1CCC(n2cnc3c(Cl)ncnc32)O1` (stereo not given) was tested, and the T/C (dose: 300.0 mg/kg/injection, schedule: Q04DX003 (sc), vehicle: Klucel (hydroxypropylcellulose) (HPC)) was 81 % of control.
`Cc1cc(NCCCCCCCNc2cc(C)nc3cc(N)ccc23)c2ccc(N)cc2n1` was tested, and the T/C (dose: 12.5 mg/kg/injection, schedule: Q01DX010 (sc), vehicle: saline with Tween-80) was 48 % of control and the T/C (dose: 25.0 mg/kg/injection, schedule: Q01DX010 (sc), vehicle: saline with Tween-80) was 11 % of control.
In the case of `N=c1ccn2c(n1)OC1C(O)C(CO)OC12` (stereo not given), the T/C (dose: 400.0 mg/kg/injection, schedule: Q04DX003 (sc), vehicle: saline) is reported as 67 % of control, the T/C (dose: 800.0 mg/kg/injection, schedule: Q04DX003 (sc), vehicle: saline) is reported as 48 % of control and the T/C (dose: 1600.0 mg/kg/injection, schedule: Q04DX003 (sc), vehicle: saline) is reported as 16 % of control. For the same molecule, the T/C (dose: 3200.0 mg/kg/injection, schedule: Q04DX003 (sc), vehicle: saline) was 8 % of control.
In the case of `CC1=C(/C=C/C(C)=C/C=C/C(C)=C/C(=O)O)C(C)(C)CCC1`, the T/C (dose: 50.0 mg/kg/injection, schedule: Q01DX010 (sc), vehicle: saline with Tween-80) is reported as 75 % of control.
In the case of `O=C(O)C1(NO)CCCCC1`, the T/C (dose: 200.0 mg/kg/injection, schedule: Q04DX003 (sc), vehicle: Klucel (hydroxypropylcellulose) (HPC)) is reported as 81 % of control, the T/C (dose: 400.0 mg/kg/injection, schedule: Q04DX003 (sc), vehicle: Klucel (hydroxypropylcellulose) (HPC)) is reported as 85 % of control and the T/C (dose: 800.0 mg/kg/injection, schedule: Q04DX003 (sc), vehicle: Klucel (hydroxypropylcellulose) (HPC)) is reported as 81 % of control. For the same molecule, the T/C (dose: 1600.0 mg/kg/injection, schedule: Q04DX003 (sc), vehicle: Klucel (hydroxypropylcellulose) (HPC)) was 77 % of control.
With `c1ccc2c(NCCCCCCCCNc3c4ccccc4nc4ccccc34)c3ccccc3nc2c1` the T/C (dose: 5.0 mg/kg/injection, schedule: Q01DX010 (sc), vehicle: Klucel (hydroxypropylcellulose) (HPC)) was 60 % of control, the T/C (dose: 10.0 mg/kg/injection, schedule: Q01DX010 (sc), vehicle: Klucel (hydroxypropylcellulose) (HPC)) was 76 % of control and the T/C (dose: 20.0 mg/kg/injection, schedule: Q01DX010 (sc), vehicle: Klucel (hydroxypropylcellulose) (HPC)) was 23 % of control. The T/C (dose: 40.0 mg/kg/injection, schedule: Q01DX010 (sc), vehicle: Klucel (hydroxypropylcellulose) (HPC)) was 36 % of control.
For `CCCCCCCCCCCCCCCCCCOCC(COP(=O)([O-])OCC[N+](C)(C)C)OC` (stereo not given), the T/C (dose: 37.5 mg/kg/injection, schedule: Q04DX003 (sc), vehicle: saline) was 68 % of control.
In the case of `O=S(=O)(CCl)OCCCl`, the T/C (dose: 50.0 mg/kg/injection, schedule: Q04DX003 (sc), vehicle: saline with Tween-80) is reported as 122 % of control and the T/C (dose: 100.0 mg/kg/injection, schedule: Q04DX003 (sc), vehicle: saline with Tween-80) is reported as 101 % of control.
